Test results from ChEMBL document CHEMBL5465560, “Selectivity Literature for EUbOPEN Chemogenomic Library” (2024).

Experiments:
[1] = biological target: Casein kinase I isoform gamma-3 (Homo sapiens) (UniProt Q9Y6M4); test: Selectivity interaction (Kinase panel (Invitrogen)) EUB0000639a CSNK1G3; conditions: at 200 nM
[2] = biological target: Receptor tyrosine-protein kinase erbB-4 (Homo sapiens, UniProt Q15303); test: Selectivity interaction (Radiometric kinase assay (using 10 uM ATP)) EUB0000601a ERBB4
[3] = biological target: T1, Receptor-interacting serine/threonine-protein kinase 1 (Homo sapiens) (UniProt Q13546); test: Selectivity interaction (KinomeScan (DiscoverX)) EUB0000655a RIPK1; conditions: at 10 µM
T1 sequence (whole entry): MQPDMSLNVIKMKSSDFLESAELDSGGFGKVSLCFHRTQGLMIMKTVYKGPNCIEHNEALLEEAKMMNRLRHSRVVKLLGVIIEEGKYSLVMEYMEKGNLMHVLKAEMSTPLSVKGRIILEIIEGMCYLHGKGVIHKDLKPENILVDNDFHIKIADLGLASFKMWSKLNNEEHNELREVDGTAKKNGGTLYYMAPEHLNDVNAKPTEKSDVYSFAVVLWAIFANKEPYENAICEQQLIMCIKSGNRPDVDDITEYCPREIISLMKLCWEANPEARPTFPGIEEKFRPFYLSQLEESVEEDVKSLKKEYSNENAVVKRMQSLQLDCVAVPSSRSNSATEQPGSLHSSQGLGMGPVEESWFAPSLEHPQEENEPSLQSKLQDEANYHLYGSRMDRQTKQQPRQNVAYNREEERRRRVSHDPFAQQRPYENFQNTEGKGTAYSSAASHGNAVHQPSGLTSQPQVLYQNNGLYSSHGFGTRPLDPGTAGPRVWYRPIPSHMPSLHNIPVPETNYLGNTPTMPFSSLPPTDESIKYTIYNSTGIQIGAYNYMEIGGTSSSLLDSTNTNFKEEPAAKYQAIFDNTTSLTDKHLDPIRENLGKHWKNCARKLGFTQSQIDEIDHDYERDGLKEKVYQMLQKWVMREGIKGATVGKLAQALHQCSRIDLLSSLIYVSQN

[4] = biological target: Serine/threonine-protein kinase 24 (Homo sapiens) (UniProt Q9Y6E0); test: Selectivity interaction (KinomeScan (DiscoverX)) EUB0000045b STK24
Serine/threonine-protein kinase 24 (Homo sapiens), sequence (Q9Y6E0 whole entry, looked up): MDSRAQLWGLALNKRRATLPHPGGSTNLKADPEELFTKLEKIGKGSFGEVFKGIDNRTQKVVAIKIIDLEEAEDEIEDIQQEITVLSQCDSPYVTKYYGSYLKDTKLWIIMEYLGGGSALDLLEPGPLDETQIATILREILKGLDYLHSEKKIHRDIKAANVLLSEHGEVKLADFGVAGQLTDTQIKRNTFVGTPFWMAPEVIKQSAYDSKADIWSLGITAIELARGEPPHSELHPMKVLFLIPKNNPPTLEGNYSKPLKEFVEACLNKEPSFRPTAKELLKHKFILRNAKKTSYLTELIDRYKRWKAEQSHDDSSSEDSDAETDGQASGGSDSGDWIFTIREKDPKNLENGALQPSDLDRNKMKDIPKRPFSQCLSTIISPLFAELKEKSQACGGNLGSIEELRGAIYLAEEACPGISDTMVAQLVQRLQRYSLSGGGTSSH

[5] = biological target: Serine/threonine-protein kinase pim-1 (Homo sapiens, UniProt P11309); test: Selectivity interaction (KinomeScan (DiscoverX)) EUB0000045b PIM1
Serine/threonine-protein kinase pim-1, sequence (P11309 whole entry, looked up): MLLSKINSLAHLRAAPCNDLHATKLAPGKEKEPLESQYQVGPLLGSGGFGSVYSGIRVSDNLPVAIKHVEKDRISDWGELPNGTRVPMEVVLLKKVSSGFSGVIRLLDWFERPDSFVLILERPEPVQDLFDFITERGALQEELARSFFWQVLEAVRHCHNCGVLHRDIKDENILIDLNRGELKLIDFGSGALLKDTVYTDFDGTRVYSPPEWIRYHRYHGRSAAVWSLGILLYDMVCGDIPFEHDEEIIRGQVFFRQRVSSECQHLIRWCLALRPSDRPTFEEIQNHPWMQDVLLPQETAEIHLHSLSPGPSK

[6] = biological target: T2, Serine/threonine-protein kinase TBK1 (Homo sapiens) (UniProt Q9UHD2); test: Selectivity interaction (KinomeScan (DiscoverX)) EUB0001079a TBK1; conditions: at 1 µM
T2 sequence (whole entry): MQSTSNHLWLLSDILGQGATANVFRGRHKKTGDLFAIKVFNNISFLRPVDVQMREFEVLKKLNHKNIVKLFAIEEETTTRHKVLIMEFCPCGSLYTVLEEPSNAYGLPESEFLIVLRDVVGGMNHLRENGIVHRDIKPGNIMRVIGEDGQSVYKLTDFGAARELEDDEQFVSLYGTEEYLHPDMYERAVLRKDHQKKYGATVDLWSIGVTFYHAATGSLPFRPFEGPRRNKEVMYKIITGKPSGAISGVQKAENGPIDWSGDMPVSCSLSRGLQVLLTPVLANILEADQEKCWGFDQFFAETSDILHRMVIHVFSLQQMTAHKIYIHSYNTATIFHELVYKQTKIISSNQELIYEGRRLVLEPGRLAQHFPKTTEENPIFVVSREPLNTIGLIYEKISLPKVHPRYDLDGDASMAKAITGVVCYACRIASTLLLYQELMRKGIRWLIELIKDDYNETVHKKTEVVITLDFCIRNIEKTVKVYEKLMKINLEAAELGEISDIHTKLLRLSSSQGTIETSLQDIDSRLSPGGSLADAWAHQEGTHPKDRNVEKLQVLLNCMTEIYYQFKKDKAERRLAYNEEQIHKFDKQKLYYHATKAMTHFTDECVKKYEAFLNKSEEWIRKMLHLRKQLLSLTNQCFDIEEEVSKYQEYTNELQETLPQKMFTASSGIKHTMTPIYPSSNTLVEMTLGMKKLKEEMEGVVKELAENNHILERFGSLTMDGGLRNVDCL

[7] = biological target: Dual specificity protein kinase CLK1 (Homo sapiens, UniProt P49759); test: Selectivity interaction (KinomeScan (DiscoverX)) EUB0000229b CLK1; conditions: at 10 µM
[8] = test system: Mast/stem cell growth factor receptor Kit (Homo sapiens), P10721 [V559D,V654A]; conditions: at 10 µM
Mast/stem cell growth factor receptor Kit (Homo sapiens), P10721 [V559D,V654A], sequence (P10721 whole entry V559D/V654A): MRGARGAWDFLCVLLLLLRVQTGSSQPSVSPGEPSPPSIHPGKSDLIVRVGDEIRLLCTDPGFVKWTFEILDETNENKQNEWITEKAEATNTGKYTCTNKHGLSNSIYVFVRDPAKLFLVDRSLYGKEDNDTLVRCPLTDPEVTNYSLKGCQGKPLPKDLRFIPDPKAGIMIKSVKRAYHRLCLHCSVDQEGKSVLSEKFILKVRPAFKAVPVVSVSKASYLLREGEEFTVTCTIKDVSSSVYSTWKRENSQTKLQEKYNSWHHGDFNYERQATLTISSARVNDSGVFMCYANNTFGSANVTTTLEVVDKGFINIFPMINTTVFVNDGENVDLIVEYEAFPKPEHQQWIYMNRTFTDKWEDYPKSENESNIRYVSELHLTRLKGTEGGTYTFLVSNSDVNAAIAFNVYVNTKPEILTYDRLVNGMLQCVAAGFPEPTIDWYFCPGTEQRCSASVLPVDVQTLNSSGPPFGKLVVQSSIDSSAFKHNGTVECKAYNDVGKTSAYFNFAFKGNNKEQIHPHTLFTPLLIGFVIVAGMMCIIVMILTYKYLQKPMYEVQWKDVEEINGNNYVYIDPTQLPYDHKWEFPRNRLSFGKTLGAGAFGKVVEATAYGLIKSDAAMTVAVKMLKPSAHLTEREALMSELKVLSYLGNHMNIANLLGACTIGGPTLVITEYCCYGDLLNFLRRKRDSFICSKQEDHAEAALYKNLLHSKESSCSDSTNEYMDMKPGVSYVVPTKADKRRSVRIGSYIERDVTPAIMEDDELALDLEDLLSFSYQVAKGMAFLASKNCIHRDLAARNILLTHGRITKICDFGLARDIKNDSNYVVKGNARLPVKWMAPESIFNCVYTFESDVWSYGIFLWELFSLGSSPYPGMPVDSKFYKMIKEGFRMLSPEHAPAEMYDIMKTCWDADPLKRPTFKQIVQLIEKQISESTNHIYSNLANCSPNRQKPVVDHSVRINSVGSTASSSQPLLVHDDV

[9] = test system: Epidermal growth factor receptor (Homo sapiens), P00533 [UNDEFINED MUTATION]; test: (§1) Selectivity interaction (KinomeScan (DiscoverX)) EUB0000618a EGFR; conditions: at 10 µM
[10] = test system: Epidermal growth factor receptor (Homo sapiens), P00533 [G719C]; test: as §1; conditions: at 10 µM
[11] = test system: Epidermal growth factor receptor (Homo sapiens), P00533 [T790M]; test: as §1; conditions: at 10 µM
Epidermal growth factor receptor (Homo sapiens), P00533 [T790M], sequence (P00533 whole entry T790M): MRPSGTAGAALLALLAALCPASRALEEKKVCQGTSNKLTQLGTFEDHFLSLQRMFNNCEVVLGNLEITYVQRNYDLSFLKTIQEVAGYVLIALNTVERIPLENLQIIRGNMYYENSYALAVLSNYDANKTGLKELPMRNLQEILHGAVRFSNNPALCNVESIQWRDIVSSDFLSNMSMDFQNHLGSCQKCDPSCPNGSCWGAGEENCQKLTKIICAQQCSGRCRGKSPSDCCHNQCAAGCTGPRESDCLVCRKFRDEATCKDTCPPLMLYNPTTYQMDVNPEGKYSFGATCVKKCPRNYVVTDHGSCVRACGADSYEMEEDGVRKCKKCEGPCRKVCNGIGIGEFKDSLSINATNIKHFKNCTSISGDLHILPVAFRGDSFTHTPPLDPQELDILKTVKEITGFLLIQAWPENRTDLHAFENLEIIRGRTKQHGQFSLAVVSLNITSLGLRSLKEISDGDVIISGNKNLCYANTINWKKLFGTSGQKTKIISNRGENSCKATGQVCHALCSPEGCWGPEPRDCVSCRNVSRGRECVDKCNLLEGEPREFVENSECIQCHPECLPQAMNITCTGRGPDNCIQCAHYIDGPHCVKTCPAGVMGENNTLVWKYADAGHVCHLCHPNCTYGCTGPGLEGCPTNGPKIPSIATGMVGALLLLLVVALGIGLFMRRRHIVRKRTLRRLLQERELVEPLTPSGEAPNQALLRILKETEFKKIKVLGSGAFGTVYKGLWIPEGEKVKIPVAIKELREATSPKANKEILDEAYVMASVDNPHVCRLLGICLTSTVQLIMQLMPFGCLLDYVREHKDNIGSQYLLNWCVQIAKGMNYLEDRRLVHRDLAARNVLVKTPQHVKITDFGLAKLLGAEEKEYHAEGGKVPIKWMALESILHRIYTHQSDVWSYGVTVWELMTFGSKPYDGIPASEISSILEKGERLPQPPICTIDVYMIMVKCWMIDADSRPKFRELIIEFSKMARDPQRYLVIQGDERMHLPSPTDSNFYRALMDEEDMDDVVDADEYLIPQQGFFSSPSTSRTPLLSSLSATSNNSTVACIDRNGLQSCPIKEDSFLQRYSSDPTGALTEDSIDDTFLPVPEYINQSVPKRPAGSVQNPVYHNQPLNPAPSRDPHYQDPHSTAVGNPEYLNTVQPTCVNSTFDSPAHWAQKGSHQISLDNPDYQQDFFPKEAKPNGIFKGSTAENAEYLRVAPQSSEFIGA

[12] = test system: Epidermal growth factor receptor (Homo sapiens), P00533 [L858R,T790M]; test: as §1; conditions: at 10 µM
Epidermal growth factor receptor (Homo sapiens), P00533 [L858R,T790M], sequence (P00533 whole entry T790M/L858R, looked up): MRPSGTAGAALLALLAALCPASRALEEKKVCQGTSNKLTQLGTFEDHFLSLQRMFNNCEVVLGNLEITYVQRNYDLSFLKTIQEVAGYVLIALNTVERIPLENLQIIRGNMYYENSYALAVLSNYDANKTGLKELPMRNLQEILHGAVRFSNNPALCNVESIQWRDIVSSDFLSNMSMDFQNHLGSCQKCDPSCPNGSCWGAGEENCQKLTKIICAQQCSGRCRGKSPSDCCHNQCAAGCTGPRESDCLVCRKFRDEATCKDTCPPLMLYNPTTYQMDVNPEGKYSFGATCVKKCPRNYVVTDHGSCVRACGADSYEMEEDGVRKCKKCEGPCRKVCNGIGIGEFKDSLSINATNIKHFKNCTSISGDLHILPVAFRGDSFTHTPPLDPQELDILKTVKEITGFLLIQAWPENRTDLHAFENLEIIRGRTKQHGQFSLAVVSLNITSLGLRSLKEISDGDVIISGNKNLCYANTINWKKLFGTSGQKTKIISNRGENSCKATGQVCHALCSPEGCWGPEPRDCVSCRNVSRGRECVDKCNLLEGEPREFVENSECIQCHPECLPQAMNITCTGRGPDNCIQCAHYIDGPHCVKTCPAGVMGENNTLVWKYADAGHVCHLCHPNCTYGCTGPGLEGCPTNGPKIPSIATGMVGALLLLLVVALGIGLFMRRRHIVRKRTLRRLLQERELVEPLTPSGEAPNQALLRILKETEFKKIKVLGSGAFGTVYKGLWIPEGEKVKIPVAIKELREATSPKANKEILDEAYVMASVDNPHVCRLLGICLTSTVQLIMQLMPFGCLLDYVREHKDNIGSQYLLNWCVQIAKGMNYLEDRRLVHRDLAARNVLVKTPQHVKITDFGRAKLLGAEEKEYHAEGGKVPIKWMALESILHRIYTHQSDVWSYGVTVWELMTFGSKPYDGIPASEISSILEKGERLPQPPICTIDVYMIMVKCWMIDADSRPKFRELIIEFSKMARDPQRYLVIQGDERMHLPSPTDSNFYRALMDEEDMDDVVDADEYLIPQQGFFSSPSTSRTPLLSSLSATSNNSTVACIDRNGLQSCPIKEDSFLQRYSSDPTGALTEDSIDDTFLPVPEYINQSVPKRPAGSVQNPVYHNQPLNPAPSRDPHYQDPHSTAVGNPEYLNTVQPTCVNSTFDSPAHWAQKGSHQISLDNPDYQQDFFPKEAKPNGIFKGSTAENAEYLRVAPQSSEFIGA

[13] = test system: Epidermal growth factor receptor (Homo sapiens), P00533 [L858R]; test: as §1; conditions: at 10 µM

Casein kinase I isoform gamma-3 (Homo sapiens), sequence (Q9Y6M4 whole entry, looked up, canonical isoform): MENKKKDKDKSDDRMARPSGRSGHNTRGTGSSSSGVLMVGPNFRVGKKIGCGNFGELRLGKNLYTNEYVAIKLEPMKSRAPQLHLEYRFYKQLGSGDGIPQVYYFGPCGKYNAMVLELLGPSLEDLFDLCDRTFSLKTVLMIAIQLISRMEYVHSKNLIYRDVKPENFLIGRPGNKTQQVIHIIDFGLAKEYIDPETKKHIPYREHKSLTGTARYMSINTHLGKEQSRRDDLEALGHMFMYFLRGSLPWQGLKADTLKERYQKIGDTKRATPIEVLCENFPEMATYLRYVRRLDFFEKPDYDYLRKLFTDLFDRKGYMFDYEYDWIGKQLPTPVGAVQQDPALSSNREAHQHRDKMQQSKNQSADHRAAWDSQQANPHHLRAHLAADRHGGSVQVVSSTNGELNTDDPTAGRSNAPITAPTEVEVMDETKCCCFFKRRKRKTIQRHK

In the case of `CC[C@@H]1[C@H](F)C(=O)N[C@@H]1COc1nccc2cc(C(N)=O)c(OC)cc12` [ZIMLOVISERTIB], the % of inhibition [1] is reported as 62.9%.

In the case of `CCc1cc(Nc2nccc(-c3c(-c4ccc(OC)c(C(=O)Nc5c(F)cccc5F)c4)nc4ccccn34)n2)c(OC)cc1N1CCC(N2CCN(S(C)(=O)=O)CC2)CC1`, the IC50 [2] is reported as > 250 µM.

For `CN(C)CCOc1ccc(-c2nc(-c3ccncc3)c(-c3ccc4c(c3)CC/C4=N\O)[nH]2)cc1`, the % of control [3] was 72%.

`C=CC(=O)Nc1cc(-n2c(=O)ccc3cnc4ccc(-c5ccc(NS(C)(=O)=O)cc5)cc4c32)ccc1C` showed a % of control ([4]; at 1 µM) of 100%, a % of control ([4]; at 10 µM) of 93% and a % of control ([5]; at 1 µM) of 100%. The % of control ([5]; at 10 µM) was 86%.

Compound `Nc1cnc(N2CCc3cc(S(=O)(=O)Nc4c(F)cc(Cl)cc4F)cc(N4CCCC4=O)c32)nc1` [TP-020n] has a % of control [6] of 85%.

`COc1cc(N(C)c2ccnc3ccc(C(F)(F)F)cc23)cc(OC)c1OC` gave a % binding [7] of 84%.

`Cc1cc([C@@H](C)Nc2ccccc2C(=O)O)c2nc(N3CCOCC3)cc(=O)n2c1` [AZD-6482] gave a % of control [8] of 96%.

`O[C@H]1CC[C@H](Nc2ncc3nc(Nc4c(F)cc(F)cc4F)n([C@H]4CCOC4)c3n2)CC1` gave a % of control [9] of 7.4%, a % of control [10] of 20% and a % of control [11] of 72%. The % of control [12] was 85% and the % of control [13] was 17%.
